The record followed here is patent publication US8057990B2, “Screening method” (Takeda Pharmaceutical Company Limited, priority 2005, dated 2011).

Assay [1] addresses T1, human GPR30 (Homo sapiens, UniProt Q99527, P21A/Q20H). The conditions noted are these: GPR30 expression HeLa cells; tacrine 100 μM; 4 hours.
Protocol: (§1) Separately, a reporter plasmid of pSRE-Luc (Invitrogen) ligated with a luciferase gene as a reporter at a downstream position of a serum response element (SRE), and expression vector plasmids for human GαoA, human Gβ1 and human Gγ2, which are each a kind of G proteins, were prepared in substantially the same manner. HeLa cells were used as host cells for transfecting the G protein-coupled receptor protein expression plasmid pAK-hGPR30 and the reporter plasmids. The cells were planted on a 384-well assay plate (COSTAR 3704) at a ratio of 4000 cells/well in a culture volume of 25 μl, and incubated overnight. As the medium, DMEM (Invitrogen) supplemented with 10% fetal bovine serum and 1% MEM non-essential amino acids solution (DMEM/NEAA) was used. Each plasmid was diluted to a concentration of 240 ng/μl. Plasmids were added to 250 μl of Opti-MEM-I (Invitrogen) at a ratio of 1 μl of pAK-hGPR30, 9 μl of the reporter plasmid, and 1 μl of each of the G protein expression plasmids for GαoA, Gβ1 and Gγ2. […] After the cells were lysed and thoroughly mixed with the substrate, the chemiluminescence level corresponding to the expression induction level of the reporter gene in each well was measured on a plate reader (EnVision™, Perkin Elmer).
The target in another assay is rat GPR30 (Rattus norvegicus, UniProt O08878, S320N). The following applies: rat GPR30 expression CHO cells; tacrine 0.67-67 μM; Fluo 3-AM.
In assay [2] the target is T1, human GPR30. The conditions noted are these: human GPR30 expression CHO cells; tacrine 0.67-67 μM; Fluo 3-AM.
Protocol: 200 μl of each type of cells was planted in each well of a 96-well plate for FLIPR (Black plate clear bottom, Coster) using an 8-channel pipette (3.0×10^4 cells/200 μl/well) and cultured in a 5% CO2 incubator at 37° C. overnight (hereinafter, referred to as the “cell plate”) before use. 20 ml of H/HBSS, 200 μl of 250 mM Probenecid, and 200 μl of fetal bovine serum (FBS) were mixed. 2 vials (50 μg) of Fluo 3-AM (Dojindo Laboratories) were lysed in […] of dimethylsulfoxide and 40 μl of 20% Pluronic acid (Molecular Probes), and the resultant substance was added to H/HBSS-Probenecid-FBS and mixed. Then, the resultant mixture was divided into units of 100 μl and put to each well of the cell plate deprived of the culture fluid using an 8-channel pipette, and incubated in a 5% CO2 incubator at 37° C. for 1 hour (colorant loading). 8 μl of a tacrine solution (Aldrich Chemical Company) of various concentrations was added to 259 μl of H/HBSS containing 2.5 mM Probenecid, 0.1% CHAPS and 0.1% BSA, and diluted. […] The cell plate and the sample plate were set in an FLIPR (501 of sample was transferred from the sample plate to the cell plate by the FLIPR), and a change of the fluorescent intensity was measured over-time. Thus, the intracellular calcium ion concentration increase activity was measured.
Assay [3] relates to HeLa cells not expressing human GPR30. The conditions noted are these: pAKKO-1.11H-transfected control HeLa cells; tacrine 100 μM; 4 hours.
Protocol: as §1

T1 sequence (Q99527 whole entry Q20H/P21A): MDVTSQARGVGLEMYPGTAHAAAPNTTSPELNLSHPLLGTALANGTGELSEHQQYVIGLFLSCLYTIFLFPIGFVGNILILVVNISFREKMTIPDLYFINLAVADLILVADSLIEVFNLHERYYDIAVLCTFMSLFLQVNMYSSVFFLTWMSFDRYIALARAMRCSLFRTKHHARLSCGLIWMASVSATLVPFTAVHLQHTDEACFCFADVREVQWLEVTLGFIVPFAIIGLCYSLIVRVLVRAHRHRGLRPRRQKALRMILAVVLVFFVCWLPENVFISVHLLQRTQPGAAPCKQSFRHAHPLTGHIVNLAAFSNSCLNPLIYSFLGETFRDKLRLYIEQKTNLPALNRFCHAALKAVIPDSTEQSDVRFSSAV
Chain of rat GPR30 (O08878 whole entry S320N): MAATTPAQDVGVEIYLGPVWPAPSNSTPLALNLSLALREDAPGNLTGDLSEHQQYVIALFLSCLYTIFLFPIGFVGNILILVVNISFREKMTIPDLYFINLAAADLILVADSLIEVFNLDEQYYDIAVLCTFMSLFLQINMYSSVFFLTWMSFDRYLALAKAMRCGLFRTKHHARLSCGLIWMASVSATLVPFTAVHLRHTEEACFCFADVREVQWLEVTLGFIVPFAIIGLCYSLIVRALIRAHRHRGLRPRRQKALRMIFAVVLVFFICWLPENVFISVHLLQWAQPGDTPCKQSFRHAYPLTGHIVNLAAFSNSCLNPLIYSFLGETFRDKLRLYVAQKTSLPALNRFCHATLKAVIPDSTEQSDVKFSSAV
Protocol for rat GPR30: The plasmid pAK-rGPR30 was transduced by electroporation into CHO/dhfr^− cells (American Type Culture Collection) in the method described in REFERENCE EXAMPLE 1, and transformed CHO cells expressing rat GPR30 (hereinafter, referred to simply as “rat GPR30 cells”) at a high ratio were selected.
200 μl of each type of cells was planted in each well of a 96-well plate for FLIPR (Black plate clear bottom, Coster) using an 8-channel pipette (3.0×10^4 cells/200 μl/well) and cultured in a 5% CO2 incubator at 37° C. overnight (hereinafter, referred to as the “cell plate”) before use. 20 ml of H/HBSS, 200 μl of 250 mM Probenecid, and 200 μl of fetal bovine serum (FBS) were mixed. 2 vials (50 μg) of Fluo 3-AM (Dojindo Laboratories) were lysed in […] of dimethylsulfoxide and 40 μl of 20% Pluronic acid (Molecular Probes), and the resultant substance was added to H/HBSS-Probenecid-FBS and mixed. […] The cell plate and the sample plate were set in an FLIPR (501 of sample was transferred from the sample plate to the cell plate by the FLIPR), and a change of the fluorescent intensity was measured over-time. Thus, the intracellular calcium ion concentration increase activity was measured.

`Nc1c2c(nc3ccccc13)CCCC2` [tacrine, 1,2,3,4-tetrahydro-9-acridinamine]: the entries for the “luciferase activity (pSRE-Luc reporter)” value (at human GPR30 [1]; in assay [3]) were “significant increase” and “no significant activity increase”, respectively. Also, the “intracellular calcium ion concentration (change of fluorescent intensity, FLIPR)” value on rat GPR30 and at human GPR30 [2] was “increased in a concentration-depending manner” in each case.
